This passage reports Kd results from US20260077000A1, “METABOLIC MODULATION OF INTRATUMORAL CHOLESTEROL WITH ENGINEERED BACTERIA FOR THE TREATMENT OF CANCERS” (Hong Kong Baptist University, priority 2024, published 2026).

pKd: −log10 of the molar value.

In this test the target is recombinant extracellular domain of EGFR (EGFR-ECD) (Homo sapiens, UniProt P00533). Put plainly: Microscale thermophoresis (MST), EGFR-ECD binding. As for the experimental part:
Recombinant human protein was labeled with a Monolith NT Protein Labeling Kit RED-NHS (Nanotemper, Munich, Germany) and diluted to 50 nM with HEPES buffer (10 mM HEPES, 150 mM NaCl, 0.05% Tween). […] Samples were incubated at room temperature for 5 minutes. The mixtures were centrifuged at 16,000×g for 5 minutes and loaded into capillaries. Microscale thermophoresis measurements were performed using a Monolith NT.115 (Nanotemper, Munich, Germany).

recombinant extracellular domain of EGFR (EGFR-ECD), sequence (P00533 25-645 limits assumed): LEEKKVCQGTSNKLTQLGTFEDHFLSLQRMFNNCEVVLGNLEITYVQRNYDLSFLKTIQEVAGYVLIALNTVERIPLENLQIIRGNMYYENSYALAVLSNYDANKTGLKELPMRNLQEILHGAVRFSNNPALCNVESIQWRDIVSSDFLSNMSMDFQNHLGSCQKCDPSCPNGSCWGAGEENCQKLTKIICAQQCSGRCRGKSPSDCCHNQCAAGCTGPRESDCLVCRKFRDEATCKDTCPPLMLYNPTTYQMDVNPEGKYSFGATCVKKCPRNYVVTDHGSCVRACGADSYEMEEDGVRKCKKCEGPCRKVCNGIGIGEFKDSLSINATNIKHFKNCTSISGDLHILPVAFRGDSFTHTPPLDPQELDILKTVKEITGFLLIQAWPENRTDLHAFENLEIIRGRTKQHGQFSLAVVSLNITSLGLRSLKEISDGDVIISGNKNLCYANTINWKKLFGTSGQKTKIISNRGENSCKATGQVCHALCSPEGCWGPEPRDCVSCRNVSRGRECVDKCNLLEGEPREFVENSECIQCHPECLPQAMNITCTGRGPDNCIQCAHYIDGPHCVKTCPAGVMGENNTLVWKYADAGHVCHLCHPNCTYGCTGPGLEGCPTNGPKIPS

In the case of `CC(C)CCC[C@@H](C)[C@H]1CC[C@H]2[C@@H]3CCC4=CC(=O)CC[C@]4(C)[C@H]3CC[C@]12C` [4-C-3, 4-cholesten-3-one], the pKd is 5.25.

As a reminder, the pKd is −log10 of the Kd, conventionally taken in molar units.
